Results from US7709441B2, “Control of function of intracellular Ca ion” (Japan Science and Technology Agency, priority 2003, dated 2010).
Read-outs that look alike come from different tables or passages of the source.

Columns and labels:
IP3R1 [1] = target: T1, IP3R1 (Mus musculus, UniProt P11881); assay: [3H]IP3 binding assay with purified IP3R1 in the presence or absence of CARP (Scatchard plot); details: for Kd: mean of three separate experiments, read-out: dissociation constant (Kd±S.D.) of IP3 binding to IP3R1
Description: The inventors conducted a binding assay using purified IP3R1, to evaluate effect of CARP on IP3-binding affinity to IP3R1. Purified IP3R1 was incubated with various concentration of [^3H] IP3 in the presence or absence of purified recombinant CARP, and analyzed by a Scatchard plot.
IP3 binding to IP3R1 by IP3 in the presence (▪ in FIG. 6) and in the absence (● in FIG. 6) of CARP. In FIG. 6, the horizontal axis represents an amount of binding IP3 (pmol/mg), and the vertical axis represents an amount of binding IP3 divided by an amount of non-binding IP3 (pmol/mg/nM).
[^3H]IP3 binding to IP3R1 was assayed by polyethylene glycol precipitation in the presence or absence of CARP in accordance with the method as reported previously (Maeda, N., Niinobe, M., et al, (1990), EMBO J.,9,61-67). 0.5 μg of purified IP3R1 was incubated with or without 10 μg of purified His-CARP in 50 μL of a solution containing 50 mM Tris-HCl, pH 8.0, 1 mM EDTA, 1 mM 2-mercaptoethanol, 9.6 nM [^3H] IP3 and different concentration of IP3, for 10 min at 4° C. Nonspecific binding was measured in the presence of 10 μM IP3.
Target sequence in this assay (P11881 whole entry): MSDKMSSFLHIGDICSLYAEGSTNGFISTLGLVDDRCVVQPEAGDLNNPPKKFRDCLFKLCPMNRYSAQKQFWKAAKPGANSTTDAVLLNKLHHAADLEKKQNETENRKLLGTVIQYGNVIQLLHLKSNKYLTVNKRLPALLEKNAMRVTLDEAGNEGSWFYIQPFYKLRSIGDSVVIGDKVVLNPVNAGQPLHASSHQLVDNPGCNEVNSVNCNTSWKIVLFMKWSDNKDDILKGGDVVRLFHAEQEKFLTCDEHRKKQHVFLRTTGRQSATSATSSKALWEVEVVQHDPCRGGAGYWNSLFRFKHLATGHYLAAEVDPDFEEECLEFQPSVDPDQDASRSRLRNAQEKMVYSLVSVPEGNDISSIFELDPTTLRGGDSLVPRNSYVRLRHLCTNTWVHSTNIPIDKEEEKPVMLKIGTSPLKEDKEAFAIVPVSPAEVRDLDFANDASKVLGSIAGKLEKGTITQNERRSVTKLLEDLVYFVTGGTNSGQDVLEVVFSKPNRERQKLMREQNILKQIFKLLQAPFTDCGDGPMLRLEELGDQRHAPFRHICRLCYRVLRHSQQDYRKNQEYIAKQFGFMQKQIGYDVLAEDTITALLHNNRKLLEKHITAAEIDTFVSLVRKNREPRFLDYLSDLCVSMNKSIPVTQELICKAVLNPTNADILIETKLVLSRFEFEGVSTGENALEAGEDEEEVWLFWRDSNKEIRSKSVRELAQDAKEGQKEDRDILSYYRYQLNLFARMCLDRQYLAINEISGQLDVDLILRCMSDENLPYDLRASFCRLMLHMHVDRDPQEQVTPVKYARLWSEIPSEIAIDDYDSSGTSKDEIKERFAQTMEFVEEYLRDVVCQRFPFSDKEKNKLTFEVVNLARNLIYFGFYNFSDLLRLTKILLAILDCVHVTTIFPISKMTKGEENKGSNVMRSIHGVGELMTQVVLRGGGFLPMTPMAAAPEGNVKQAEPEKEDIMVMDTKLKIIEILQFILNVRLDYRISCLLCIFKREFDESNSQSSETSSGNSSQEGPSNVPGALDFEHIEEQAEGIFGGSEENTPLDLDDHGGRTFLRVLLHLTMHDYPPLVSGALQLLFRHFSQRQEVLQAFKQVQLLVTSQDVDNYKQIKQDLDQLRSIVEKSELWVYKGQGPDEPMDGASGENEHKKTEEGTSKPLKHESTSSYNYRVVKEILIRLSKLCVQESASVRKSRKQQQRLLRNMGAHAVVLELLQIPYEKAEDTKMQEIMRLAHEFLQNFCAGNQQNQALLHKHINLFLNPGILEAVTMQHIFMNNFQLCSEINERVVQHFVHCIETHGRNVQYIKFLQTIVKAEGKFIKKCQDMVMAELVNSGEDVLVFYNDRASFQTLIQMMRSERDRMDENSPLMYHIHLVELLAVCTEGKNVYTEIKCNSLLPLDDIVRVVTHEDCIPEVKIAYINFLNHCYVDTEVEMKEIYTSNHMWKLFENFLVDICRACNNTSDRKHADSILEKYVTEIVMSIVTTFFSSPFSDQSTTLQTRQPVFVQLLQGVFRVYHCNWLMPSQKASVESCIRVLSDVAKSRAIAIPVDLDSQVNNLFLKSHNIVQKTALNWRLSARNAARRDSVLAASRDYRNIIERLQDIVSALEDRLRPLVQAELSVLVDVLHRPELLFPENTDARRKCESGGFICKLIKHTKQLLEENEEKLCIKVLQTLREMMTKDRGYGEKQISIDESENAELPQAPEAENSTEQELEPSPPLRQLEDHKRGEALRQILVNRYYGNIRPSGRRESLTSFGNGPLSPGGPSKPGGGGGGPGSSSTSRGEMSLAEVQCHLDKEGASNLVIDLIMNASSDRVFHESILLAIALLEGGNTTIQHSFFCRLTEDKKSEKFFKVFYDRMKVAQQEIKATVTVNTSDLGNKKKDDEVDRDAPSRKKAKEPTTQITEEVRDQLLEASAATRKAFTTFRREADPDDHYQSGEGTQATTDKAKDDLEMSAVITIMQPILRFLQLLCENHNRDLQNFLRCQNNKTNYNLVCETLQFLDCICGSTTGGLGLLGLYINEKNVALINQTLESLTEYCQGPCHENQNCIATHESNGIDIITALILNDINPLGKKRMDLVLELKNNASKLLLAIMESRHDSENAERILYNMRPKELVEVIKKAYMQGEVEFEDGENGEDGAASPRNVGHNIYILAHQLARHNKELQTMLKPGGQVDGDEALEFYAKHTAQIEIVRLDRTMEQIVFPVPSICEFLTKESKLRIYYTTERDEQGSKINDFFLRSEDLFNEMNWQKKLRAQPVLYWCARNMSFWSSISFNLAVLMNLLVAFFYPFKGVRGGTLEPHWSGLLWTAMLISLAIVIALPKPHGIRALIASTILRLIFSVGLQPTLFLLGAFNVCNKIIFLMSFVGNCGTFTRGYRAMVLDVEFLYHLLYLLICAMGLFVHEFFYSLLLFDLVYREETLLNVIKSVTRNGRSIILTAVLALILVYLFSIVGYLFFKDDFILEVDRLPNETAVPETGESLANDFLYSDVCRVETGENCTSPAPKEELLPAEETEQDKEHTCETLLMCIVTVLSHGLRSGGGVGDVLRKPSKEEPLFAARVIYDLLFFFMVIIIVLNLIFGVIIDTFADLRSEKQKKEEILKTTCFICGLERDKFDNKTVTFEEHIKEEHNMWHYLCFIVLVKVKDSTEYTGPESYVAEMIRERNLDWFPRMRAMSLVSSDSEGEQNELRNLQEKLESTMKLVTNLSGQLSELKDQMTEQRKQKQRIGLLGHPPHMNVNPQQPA

IP3R1 [2] = details: other tissues or isolated IP3R1; read-out: EC50 of IP3 for IP3-induced Ca2+ release; cited from earlier work
Purkinje cells = details: intact Purkinje cells; read-out: EC50 of IP3 for IP3-induced Ca2+ release; cited from earlier work
[3] = reported; cited from earlier work
[4] = target: T2, GST-EL (amino acids 1-2217 of mIP3R1) (Mus musculus, UniProt P11881); assay: Pull-down assay with GST-EL (soluble IP3R1), immunoblot with anti-CARP antibody; format: binding; details: mouse cerebellar cytosolic fraction; GST as control
T2 construct: (amino acids 1-2217 of mIP3R1) and has GST in its N terminus; made in house; host or cells: Sf9 cells (recombinant baculovirus)
Excerpt: (§1) Next, the inventors of the present application examined the interaction between CARP and IP3R1 by means of a pull-down method in order to obtain further evidence for the interaction by biochemical methods. The inventors first developed expression system in Sf9 cells, and made IP3R1 soluble by removing the channel domain. The soluble IP3R1, designated GST-EL, covers both the ligand binding domain and modulatory domain (amino acids 1-2217 of mIP3R1) and has GST in its N terminus. Mouse cerebellar cytosolic fraction was incubated with GST-EL or GST, and binding of CARP to the recombinant proteins was analyzed by immunoblotting with anti-CARP antibody. The results are shown in photographs of FIG. 4 which are substituted for drawings.
Adult mouse cerebella were homogenized in 10 mM HEPES (pH 7.4), 320 mM Sucrose, 2 mM EDTA, 1 mM 2-mercaptoethanol, and protease inhibitors and the homogenate was centrifuged at 1,000×g for 10 min. The supernatant was centrifuged at 100,000×g for 60 min to obtain the cytosolic fraction (the supernatant) and the crude microsome (the pellet). The cytosolic fraction was added with 100 mM NaCl, and incubated with 20 μg of GST-EL or GST for 2 hours at 4° C. […] The eluted proteins were analyzed by Western blotting with anti-CARP antibody. […]

IP3R1 [5] = target: T1, IP3R1; assay: Pull-down assay with GST-CARP on detergent extract of mouse cerebellar microsome, immunoblot with anti-IP3R1 antibody; format: binding; parameters: The crude microsome was solubilized with 1% Triton X-100; from tissue; host or cells: adult mouse cerebellum, crude microsome solubilized with Triton X-100 (GST-CARP made in Escherichia coli); details: GST as control
Excerpt: as §1
The crude microsome was solubilized with 1% Triton X-100, and dissolved in 50 mM HEPES (pH7.4), 2 mM EDTA, 1 mM 2-mercaptoethanol, and protease inhibitors for 30 min at 4° C., and centrifuged at 20,000×g for 30 min. The supernatants were processed for pull-down assay with 10 μg of GST-CARP or GST as described above, and bound proteins were subjected to immunoblot analysis with anti-IP3R1 antibody KM1112.

T2 sequence (P11881 1-2217, one chain of several): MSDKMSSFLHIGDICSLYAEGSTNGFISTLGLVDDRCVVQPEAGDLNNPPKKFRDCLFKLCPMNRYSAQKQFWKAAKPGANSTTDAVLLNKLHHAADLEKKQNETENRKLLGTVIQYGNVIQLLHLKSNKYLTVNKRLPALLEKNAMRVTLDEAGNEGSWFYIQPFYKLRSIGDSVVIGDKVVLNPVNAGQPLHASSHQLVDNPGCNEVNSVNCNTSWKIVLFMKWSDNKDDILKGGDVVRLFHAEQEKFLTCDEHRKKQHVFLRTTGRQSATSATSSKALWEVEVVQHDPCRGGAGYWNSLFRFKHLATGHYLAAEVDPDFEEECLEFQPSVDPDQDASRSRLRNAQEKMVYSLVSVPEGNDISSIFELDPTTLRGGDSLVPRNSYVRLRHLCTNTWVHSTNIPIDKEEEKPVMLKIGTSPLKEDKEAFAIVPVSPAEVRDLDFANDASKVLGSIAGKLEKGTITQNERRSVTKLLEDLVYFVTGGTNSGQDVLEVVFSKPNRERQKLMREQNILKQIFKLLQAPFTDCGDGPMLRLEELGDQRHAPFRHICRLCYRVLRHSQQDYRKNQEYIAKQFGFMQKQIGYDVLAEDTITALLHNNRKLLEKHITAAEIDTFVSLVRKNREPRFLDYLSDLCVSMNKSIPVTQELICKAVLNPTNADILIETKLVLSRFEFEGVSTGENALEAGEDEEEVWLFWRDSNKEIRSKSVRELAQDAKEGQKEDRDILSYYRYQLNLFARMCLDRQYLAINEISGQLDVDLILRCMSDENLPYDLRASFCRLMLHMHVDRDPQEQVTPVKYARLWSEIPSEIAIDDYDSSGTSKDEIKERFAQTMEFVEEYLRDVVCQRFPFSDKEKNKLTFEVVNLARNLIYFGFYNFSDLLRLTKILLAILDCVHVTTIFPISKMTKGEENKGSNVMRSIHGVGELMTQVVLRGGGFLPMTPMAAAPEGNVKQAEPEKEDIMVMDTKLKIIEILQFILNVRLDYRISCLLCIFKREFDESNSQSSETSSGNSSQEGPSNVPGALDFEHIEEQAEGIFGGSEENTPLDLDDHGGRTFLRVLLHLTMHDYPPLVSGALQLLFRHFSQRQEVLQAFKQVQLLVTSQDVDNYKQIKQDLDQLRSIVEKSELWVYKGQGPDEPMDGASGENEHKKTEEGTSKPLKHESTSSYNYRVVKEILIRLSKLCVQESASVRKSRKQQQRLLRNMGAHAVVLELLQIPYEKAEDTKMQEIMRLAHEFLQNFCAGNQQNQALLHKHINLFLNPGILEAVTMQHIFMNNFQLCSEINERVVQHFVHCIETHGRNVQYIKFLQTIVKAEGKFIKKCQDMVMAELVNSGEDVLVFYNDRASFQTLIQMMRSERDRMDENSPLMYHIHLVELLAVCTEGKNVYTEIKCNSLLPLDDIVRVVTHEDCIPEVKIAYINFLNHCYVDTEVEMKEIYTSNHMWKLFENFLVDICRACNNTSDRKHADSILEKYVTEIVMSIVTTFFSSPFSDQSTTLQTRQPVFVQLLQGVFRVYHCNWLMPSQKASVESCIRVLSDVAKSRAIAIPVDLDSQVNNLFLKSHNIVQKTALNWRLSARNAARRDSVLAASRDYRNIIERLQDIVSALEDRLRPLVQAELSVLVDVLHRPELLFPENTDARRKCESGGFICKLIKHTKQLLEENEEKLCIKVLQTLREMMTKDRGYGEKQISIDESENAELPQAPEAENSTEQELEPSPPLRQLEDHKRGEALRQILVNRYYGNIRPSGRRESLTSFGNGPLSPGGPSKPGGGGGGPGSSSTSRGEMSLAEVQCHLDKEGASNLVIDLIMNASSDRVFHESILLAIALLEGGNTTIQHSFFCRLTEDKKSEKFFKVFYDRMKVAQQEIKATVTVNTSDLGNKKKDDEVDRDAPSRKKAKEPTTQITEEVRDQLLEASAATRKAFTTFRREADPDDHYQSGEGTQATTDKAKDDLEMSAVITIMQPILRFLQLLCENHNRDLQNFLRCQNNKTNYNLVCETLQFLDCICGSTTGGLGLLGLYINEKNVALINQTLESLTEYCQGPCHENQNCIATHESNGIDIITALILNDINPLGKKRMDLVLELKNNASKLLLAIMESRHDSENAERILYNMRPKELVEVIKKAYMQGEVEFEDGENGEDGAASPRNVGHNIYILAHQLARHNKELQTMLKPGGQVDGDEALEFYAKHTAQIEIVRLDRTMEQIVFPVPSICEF

With `O=P(O)(O)OC1C(O)C(O)C(OP(=O)(O)O)C(OP(=O)(O)O)C1O` (stereo not shown) [IP3, inositol-1,4,5-triphosphate] the “Bmax value of IP3 binding to IP3R1” value (IP3R1 [1]; in the absence of CARP) was 1720 ± 234 pmol/mg, the Kd (IP3R1 [1]; in the absence of CARP) was 18.2 ± 4.58 nM and the “Bmax value of IP3 binding to IP3R1” value (IP3R1 [1]; in the presence of CARP) was 1630 ± 108 pmol/mg. The Kd (IP3R1 [1]; in the presence of CARP) was 33.5 ± 2.07 nM, the EC50 (IP3R1 [2]) was 100 to 1000 nM and the EC50 (Purkinje cells) was ≥ 10000 nM.

B1: CARP: mouse carbonic anhydrase-related protein, 291 amino acids, SEQ ID NO:2 (protein, listed as Mus musculus)
chain: MADLSFIEDAVAFPEKEEDEEEEEEEGVEWGYEEGVEWGLVFPDANGEYQSPINLNSREARYDPSLLDVRLSPNYVVCRDCEVTNDGHTIQVILKSKSVLSGGPLPGGQEFELYEVRFHWGRENQRGSEHTVNFKAFPMELHLIHWNSTLFGSIDEAVGKPHGIAIIALFVQIGKEHVGLKAVTEILQDIQYKGKSKTIPCFNPNTLLPDPLLRDYWVYEGSLTIPPCSEGVTWILFRYPLTISQMQIEEFRRLRTHVKGVELVEGCDGILGDNFRPTQPLSDRVIRAAFQ
For B1, the “effect of CARP on binding of IP3 to IP3R1” value (IP3R1 [1]; 10 μg purified His-CARP, 0.5 μg purified IP3R1) is listed as “inhibits binding of IP3 to IP3R1 not by antagonistic action but by reducing the affinity”, the carbonic anhydrase activity [3] is listed as “no carbonic anhydrase activity” and the “binding of CARP to GST-EL in pull-down” value [4] is listed as “specifically binds to GST-EL, but not to GST alone”.

B2: GST-CARP: GST-fusion recombinant full-length CARP expressed in Escherichia coli (protein)
chain: MADLSFIEDAVAFPEKEEDEEEEEEEGVEWGYEEGVEWGLVFPDANGEYQSPINLNSREARYDPSLLDVRLSPNYVVCRDCEVTNDGHTIQVILKSKSVLSGGPLPGGQEFELYEVRFHWGRENQRGSEHTVNFKAFPMELHLIHWNSTLFGSIDEAVGKPHGIAIIALFVQIGKEHVGLKAVTEILQDIQYKGKSKTIPCFNPNTLLPDPLLRDYWVYEGSLTIPPCSEGVTWILFRYPLTISQMQIEEFRRLRTHVKGVELVEGCDGILGDNFRPTQPLSDRVIRAAFQ
modifications: left off: a dimerising Fc or GST
notes: GST-fusion recombinant full-length CARP expressed in Escherichia coli
With B2 the “binding of IP3R1 to GST-CARP in pull-down” value (IP3R1 [5]) was “IP3R1 interacted with GST-CARP but not with GST”.
